{"source": "patent US5486604A", "about": "“Cyclic ADP ribose antagonists” (Regents of the University of Minnesota, priority 1993, dated 1996)", "key": {"[1]": {"system": "cADPR-sensitive Ca^+2 release", "test": "cADPR-induced Ca2+ release from L. pictus egg homogenates, Fluo 3", "assay_type": "biochemical, Lytechinus pictus"}, "[2]": {"system": "cADPR-sensitive Ca^+2 release", "test": "cADPR-induced Ca2+ release from S. purpuratus egg homogenates, Fluo 3 as Ca2+ indicator", "assay_type": "biochemical, Strongylocentrotus purpuratus", "protocol": "FIG. 2 Inhibition of cADPR induced Ca^+2 release by 8-amino-cADPR Ca^+2 release from S. purpuratus homogenates (1.25%) was monitored using Fluo 3 as Ca^+2 indicator. (a) The effect of varying the concentration of cADPR on Ca^+2 release. (b) The inhibition of Ca^+2 release induced by 135 nM of cADPR by pre-treatment of the homogenates with 100 nM 8-amino-cADPR.\nFIG. 3 Competitive inhibition of cADPR dependent Ca^+2 release by 8-amino-cADPR. Ca^+2 release from S. purpuratus homogenates (1.25%) induced by various concentrations of cADPR was measured in the presence and absence of 100 nM 8-amino-cADPR (8-amino-cADPR);\nFIG. 5 Effectiveness of 8-amino-cADPR in blocking Ca^+2 release induced by cADPR. (a) Ca^+2 release from S. purpuratus homogenates (1.25%) induced by the addition of 95 nM cADPR was measured using Fluo 3 as Ca^+2 indicator. (b-d) After the Ca^+2 release had started, increasing amounts of 8-amino-cADPR (8-NH2) were added to give the final concentrations indicated in the Figure;\n(§1) Homogenates from Strongylocentrotus purpuratus eggs were prepared as previously described (Lee, H. C. (1991) J. Biol. Chem. 266, 2276-2281, Lee, H. C. (1993) J. Biol. Chem. 268, 293-299). Briefly, eggs were washed once in artificial sea water, twice in Ca^+2 -free sea water containing 1 mM EGTA, twice in Ca^+2 -free sea water without EGTA, once with the homogenization buffer (GluIAG MPM) containing 250 mM N-methylglucamine, 250 mM potassium gluconate, 20 mM HEPES, and 1 mM MgCl2; pH titrated to 7.2 with acetic acid and resuspended with the same medium to 25% (v/v). The following additions were made: 10 μg/ml of leupeptin, 10 μg/ml of aprotinin, 50 μg/ml of soybean trypsin inhibitor, 2 units/ml of creatine kinase, 4 mM phosphocreatine and 0.5 mM ATP. The suspension was chilled on ice for 10-15 min and transferred to a beaker inside a cell disruption bomb (Parr Instrument Co., Ill.). The suspension was mixed continuously with a magnetic stirring bar while nitrogen pressure of 80 psi was applied for 10-30 seconds. The sudden decompression of the suspension as it was released from the bomb effectively homogenized the eggs. The homogenates were centrifuged for 12-14 seconds (13,000×g, 4° C.) in a microfuge (Fisher) and the supernatant was collected and stored frozen at -70 ° C. until use.\n(§2) Frozen egg homogenates prepared as described above were thawed in a 17° C. water bath for 20-30 min and then diluted to 5% with the homogenization medium (GLuIM) containing 2 units/ml of creatine kinase, 4 mM phosphocreatine and 0.5 mM ATP. After incubating at 17° C. for one hour the homogenates were diluted sequentially to 2.5% and finally to 1.25% with the same medium. Following each dilution, the homogenates were incubated at 17° C. for one hour. After the last dilution, fluo 3 was added to a final concentration of 3 μM. Fluorescence was measured at 490 nm excitation and 535 nm emission using a Hitachi spectrofluorimeter (F-2000). Fluo 3 fluorescence intensity is directly related to the Ca^+2 concentration (Dargie, P. J., Agre, M. C., and Lee, Hon. C. (1990) Cell Regulation 1,279-290). In some Figures the Fluo 3 fluorescence intensity was calibrated with the addition of known amounts of Ca^ +2. All assays were done in a curvette maintained at 17° C. with a circulating water bath and its content continuously mixed with a magnetic stirring bar. The volume of homogenate used for each assay was 0.2 ml."}, "cADPR binding site": {"system": "cADPR binding site", "test": "Specific binding of [32P]cADPR to sea urchin egg microsomes (filtration assay)", "set-up": "species or system Lytechinus pictus", "protocol": "FIG. 4 Competitive inhibition of ^32 P-cADPR binding by 8-amino-cADPR and cADPR. Specific binding of ^32 P-cADPR to L. pictus microsomes was measured in the presence of various concentrations of cADPR (filled squares) and 8-amino-cADPR (open squares). Total binding in the presence of a high concentration of cADPR (1.2 μM) was taken as non-specific binding (55 cpm) and was subtracted from all the values;\nSpecific binding of [^32 P]cADPR to sea urchin egg microsomes was determined by a filtration assay as described previously (Lee, H. C. (1991) J. Biol. Chem. 266, 2276-2281) with some modifications. L. pictus egg homogenates (1 ml) were dialyzed overnight against 1 liter of the homogenization buffer (GluIM listed above). After dialysis, the homogenates were centrifuged for 30 min in a microfuge and the supernatant containing microsomes was collected and diluted 20 fold with GluIM. About 40,000 cpm of [^32 P]cADPR (400 Ci/mmol) and various concentrations of either cADPR or 8-substituted analogs were incubated with the 20 fold diluted microsomes for 10 min at 4° C. in a volume of 0.1 ml. […] The filters were then washed with 4 ml of 10 % polyethylene glycol and the radioactivity on the filters was determined by liquid scintillation counting. […] The specific binding was determined as the total binding minus the binding in the presence of 1.2 μM of unlabeled cADPR. […]"}, "[3]": {"system": "caffeine induced Ca^+2 release", "test": "Caffeine induced Ca2+ release and its potentiation by cADPR, S. purpuratus homogenates", "assay_type": "biochemical, Strongylocentrotus purpuratus", "protocol": "FIG. 7 Inhibition of the potentiating effect of cADPR on caffeine induced Ca^+2 release. Ca^+2 release from S. purpuratus homogenates (1.25%) was measured using Fluo 3 as Ca^+2 indicator. (a) In the absence of cADPR, addition of 1 mM caffeine induced no Ca^+2 release (curve labeled 0). The presence of 20 nM cADPR (arrow labeled cADPR) greatly potentiated the Ca^+2 releasing activity of 1 mM caffeine (curve labeled 20).\nas §1, §2"}, "[4]": {"system": "Ca^+2 release induced by ryanodine", "test": "Ryanodine induced Ca2+ release, S. purpuratus homogenates", "assay_type": "biochemical, Strongylocentrotus purpuratus", "protocol": "FIG. 8 Inability of 8-amino-cADPR to block Ca^+2 release induced by ryanodine. Ca^+2 release from S. purpuratus homogenates (1.25%) was measured using Fluo 3 as Ca^+2 indicator. Ryanodine and 8-amino-cADPR(8-NH2) were added to the final concentrations as indicated;\nas §1, with “The homogenates were centrifuged for 12-14 seconds (13,000×g, 4° C.) in a microfuge (Fisher) and the supernatant was collected and stored frozen at -70 ° C. until use.” left out\n(§3) Frozen egg homogenates prepared as described above were thawed in a 17° C. water bath for 20-30 min and then diluted to 5% with the homogenization medium (GLuIM) containing 2 units/ml of creatine kinase, 4 mM phosphocreatine and 0.5 mM ATP. […] Fluorescence was measured at 490 nm excitation and 535 nm emission using a Hitachi spectrofluorimeter (F-2000). Fluo 3 fluorescence intensity is directly related to the Ca^+2 concentration (Dargie, P. J., Agre, M. C., and Lee, Hon. C. (1990) Cell Regulation 1,279-290). In some Figures the Fluo 3 fluorescence intensity was calibrated with the addition of known amounts of Ca^ +2. […]"}, "[5]": {"system": "Ca^+2 induced Ca^+2 release", "test": "cADPR potentiation of divalent cation (Ca2+, Sr2+) induced Ca2+ release, S. purpuratus homogenates", "assay_type": "biochemical, Strongylocentrotus purpuratus", "protocol": "FIG. 6 Inhibition of the potentiating effect of cADPR on Ca^+2 release induced by divalent cations. […] release from S. purpuratus homogenates (1.25% ) was measured using Fluo 3 as Ca^+2 indicator. (a) Ca^+2 release was induced by 75 nM cADPR in the absence of 8-amino-cADPR (-8-NH2). Prior addition of 50 nM 8-amino-cADPR (+8 NH2) prohibited cADPR (75 nM) from releasing Ca^+2. (b) In the presence of 30 nM cADPR, addition of 0.4 nmol of Ca^+2 (arrow labeled Ca) induced further Ca^+2 release (-8-NH2). Prior addition of 50 nM 8-amino-cADPR blocked cADPR from potentiating the Ca^+2 induced Ca^+2 release (+8-NH2). (c) In the presence of 30 nM cADPR, addition of 2 nmol of Sr^+2 (arrow labeled Sr) induced further Ca^ +2 release (-8-NH2). […]\nas §3"}, "cADPR-sensitive release": {"system": "cADPR-sensitive release", "conditions": "pharmacological blockers of CICR; cited from earlier work"}, "[6]": {"system": "specific microsomal binding site for cADPR", "conditions": "cited from earlier work"}}, "data": [{"molecule": "N=c1c2nc(Br)n3c2ncn1[C@@H]1O[C@H](COP(=O)(O)OP(=O)(O)OC[C@H]2O[C@@H]3[C@H](O)[C@@H]2O)[C@@H](O)[C@H]1O", "note": "[8-Br-cADPR]", "values": [{"measurement": "concentrations required for antagonism, compared with 8-amino-cADPR", "setting": "[1]; 40 nM cADPR", "value": "required micromolar concentrations"}, {"measurement": "Ca^+2 release caused by the analog itself", "setting": "[1]; 1 to 3.5 uM, L. pictus homogenates 2.5%", "value": "did not release"}, {"measurement": "blockage of Ca^+2 release induced by 40 nM cADPR", "setting": "[1]; prior addition of increasing concentrations, 1 to 3.5 uM", "value": "progressive blockage"}]}, {"molecule": "N=c1c2nc(N)n3c2ncn1[C@@H]1O[C@H](COP(=O)(O)OP(=O)(O)OC[C@H]2O[C@@H]3[C@H](O)[C@@H]2O)[C@@H](O)[C@H]1O", "note": "[8-amino-cADPR]", "values": [{"measurement": "effect on the concentration-response curve of cADPR", "setting": "[2]; 100 nM 8-amino-cADPR present", "value": "shifted the concentration-response curve toward higher concentrations of cADPR"}, {"measurement": "IC50", "setting": "[2]; 135 nM cADPR, read-out: concentration of antagonist at which the rate of Ca^+2 release induced by cADPR was reduced by half", "value": "~9", "unit": "nM"}, {"measurement": "block of Ca^+2 release induced by cADPR", "setting": "[2]; 150 nM analog added before 135 nM cADPR", "value": "virtually complete"}, {"measurement": "Ca^+2 release caused by the analog itself", "setting": "[2]; 150 nM final concentration, egg homogenates 1.25%", "value": "did not cause any"}, {"measurement": "kind of antagonism of cADPR", "setting": "[2]; inhibition overcome by increasing cADPR", "value": "reversible antagonist"}, {"measurement": "block of Ca^+2 release induced by 75 nM cADPR", "setting": "[2]; prior addition of 50 nM antagonist", "value": "total blockage"}, {"measurement": "effect on ongoing Ca^+2 release when added after release had commenced", "setting": "[2]; release activated by 95 nM cADPR, 100 nM antagonist", "value": "almost total cessation"}, {"measurement": "competition for the [32P]cADPR binding sites", "setting": "cADPR binding site; L. pictus egg microsomes, compared with unlabeled cADPR", "value": "as effective as cADPR itself"}, {"measurement": "block of Ca^+2 release induced by a high concentration of caffeine", "setting": "[3]; 100 nM antagonist, 2.5 mM caffeine, data not shown", "value": "did not block"}, {"measurement": "inhibition of cADPR (20 nM) potentiation of caffeine (1 mM) induced Ca^+2 release", "setting": "[3]; prior addition of 10 nM antagonist", "value": "substantial inhibition"}, {"measurement": "inhibition of cADPR (20 nM) potentiation of caffeine (1 mM) induced Ca^+2 release", "setting": "[3]; prior addition of 100 nM antagonist", "value": "completely blocked"}, {"measurement": "effect of antagonist on the Ca^+2 release activity of ryanodine", "setting": "[4]; 100 nM antagonist", "value": "slightly stimulated"}, {"measurement": "inhibition of Ca^+2 release induced by ryanodine", "setting": "[4]; 100 nM antagonist", "value": "did not inhibit"}, {"measurement": "stimulated Ca^+2 release after 0.4 nmol Ca^+2 in the presence of 30 nM cADPR", "setting": "[5]; 50 nM antagonist added before cADPR", "value": "absent"}, {"measurement": "stimulated Ca^+2 release after Sr^+2 in the presence of 30 nM cADPR", "setting": "[5]; prior addition of 50 nM antagonist, 2 nmol Sr^+2", "value": "blocked"}]}, {"molecule": "[N-]=[N+]=Nc1nc2c(=N)n3cnc2n1[C@@H]1O[C@H](COP(=O)(O)OP(=O)(O)OC[C@H]2O[C@@H]3[C@H](O)[C@@H]2O)[C@@H](O)[C@H]1O", "note": "[8-azido-cADPR]", "values": [{"measurement": "antagonist potency rank", "setting": "[1]; data not shown", "value": "between that of 8-amino-cADPR and 8-Br-cADPR"}]}, {"molecule": "N=c1c2ncn3c2ncn1[C@@H]1O[C@H](COP(=O)(O)OP(=O)(O)OC[C@H]2O[C@@H]3[C@H](O)[C@@H]2O)[C@@H](O)[C@H]1O", "note": "[cADPR, Cyclic ADP-ribose, reference compound]", "values": [{"measurement": "EC50", "setting": "[2]; in the absence of the analog, read-out: half-maximal concentration for Ca^+2 release", "value": "~90", "unit": "nM"}, {"measurement": "Kd", "setting": "cADPR binding site; dialyzed L. pictus homogenates, 0-5 C, no ATP, read-out: apparent affinity constant derived from the binding data", "value": "~1", "unit": "nM"}, {"measurement": "potentiation of caffeine (1 mM) induced Ca^+2 release", "setting": "[3]; 20 nM cADPR, not sufficient to release Ca^+2 by itself", "value": "greatly increased the caffeine sensitivity"}]}, {"molecule": "Cn1c(=O)c2c(ncn2C)n(C)c1=O", "note": "[caffeine, reference compound]", "values": [{"measurement": "Ca^+2 release by caffeine alone", "setting": "[3]; 1 mM caffeine, absence of cADPR", "value": "did not produce any"}]}, {"molecule": "CCN(CC)CCOC(=O)c1ccc(N)cc1", "note": "[procaine]", "values": [{"measurement": "effect on the cADPR-sensitive release", "setting": "cADPR-sensitive release", "value": "specifically inhibit"}]}, {"molecule": "N.N.N.N.N.N.N.N.N.N.N.N.N.N.[Cl-].[Cl-].[Cl-].[Cl-].[Cl-].[Cl-].[O-2].[O-2].[Ru+3].[Ru+3].[Ru+4]", "note": "[ruthenium red]", "values": [{"measurement": "effect on the cADPR-sensitive release", "setting": "cADPR-sensitive release", "value": "specifically inhibit"}]}, {"molecule": "inositol trisphosphate", "values": [{"measurement": "competition for the specific microsomal binding site for cADPR, relative to cADPR", "setting": "[6]", "value": "at least a thousand times less effectively than cADPR"}]}, {"molecule": "ryanodine [reference compound]", "values": [{"measurement": "Ca^+2 release on addition to egg homogenates", "setting": "[4]; ryanodine alone", "value": "concentration-dependent release"}]}]}
